How the values were obtained:
Assay in all cases: Growth of heme resistant mutant in CeHR medium
Assay type in all cases: in vivo, Caenorhabditis elegans
[1] = test system: C. elegans mutant IH718; parameters: key: + = wild type equivalent In growth; ND: No growth
Experimental: To further increase the stringency of our genetic screen we split the contents from each 800 μM hemin selection flasks into two flasks containing either 800 μM or 1000 μM hemin. This allowed us to use another tier of positive selection to identify mutants with greater resistance to heme toxicity. Mutants from each flask were isolated and treated as a separate entity by giving an identification number based on the Genetic Nomenclature Guidelines used for C. elegans (http://biosci.umn.edu/CGC/Nomenclature/nomenguid.htm). To eliminate EMS-induced spurious mutations that could result in false positive, the mutants were outcrossed to wild-type N2 males. After five outcrosses, which replaces ˜97% of the mutant genome, mutants that bred true were selected for further analysis. Using this procedure, we isolated 13 individual mutants that were resistant to heme toxicity. […]
Worm Culture and Growth Assays. […] Worm growth was monitored each day and an aliquot was obtained for counting by microscopy usually at days 3, 6, and 9. The worms in each well were counted twice and each growth condition was analyzed in triplicate. P values for statistical significance were calculated utilizing a one-way ANOVA with Student-Newman-Keuls multiple comparison test using GraphPad Instat version 3.01. […]

[2] = test system: C. elegans mutant IH1068 d; parameters: key to Growth 1.6 μM hemin / Growth 0.5 μM GaPP: + = wild type equivalent In growth; ND: No growth
Experimental: (§1) To further increase the stringency of our genetic screen we split the contents from each 800 μM hemin selection flasks into two flasks containing either 800 μM or 1000 μM hemin. This allowed us to use another tier of positive selection to identify mutants with greater resistance to heme toxicity. Mutants from each flask were isolated and treated as a separate entity by giving an identification number based on the Genetic Nomenclature Guidelines used for C. elegans (http://biosci.umn.edu/CGC/Nomenclature/nomenguid.htm). To eliminate EMS-induced spurious mutations that could result in false positive, the mutants were outcrossed to wild-type N2 males. After five outcrosses, which replaces ˜97% of the mutant genome, mutants that bred true were selected for further analysis. Using this procedure, we isolated 13 individual mutants that were resistant to heme toxicity. These mutants were further characterized by analyzing Mendelian segregation ratios, X-linkage, phenotype penetrance, generation times, brood size, and their ability to grow under low hemin. […] This observation was surprising because we anticipated that high heme-resistant mutants will grow poorly under low heme. Based on the mutant's growth profile at low and high heme levels, we broadly categorized them into three phenotypic classes: class A, class B and class C (FIG. 13). These “phenoclusters” have the following growth phenotype: (a) three mutants IH728, IH938, IH731 show with robust growth under low and high (≧800 μM heme (FIG. 13B), (b) one mutant IH828 show exceptional growth under low heme, moderate growth at ≦800 μM heme, and no growth at 1000 μM hemin (FIG. 13C), and (c) six mutants IH921, IH11058, IH1068n, IH1068d, IH1048, and IH718 that show moderate growth under high heme (≦800 μM), but normal growth under low heme (FIG. 13D). By classifying these mutants into phenoclusters, we can focus our efforts on the phenotypic datasets to map the molecular networks and pathways involved in heme dependent processes. For instance, mutants in a cluster may have mutations within the same gene or in multiple genes but within the same pathway.
(§2) Worm Culture and Growth Assays. Free-living worms were cultured in CeHR axenic liquid medium (Dr. Eric Clegg, Personal Communication). […] CeHR medium was modified (henceforth called mCeHR) to eliminate all sources of exogenously added heme; basal growth medium comprised 20 μM hemin chloride (Frontier Scientific, Logan, Utah) and 150 μM of ferrous ammonium sulfate (Sigma Chemicals). Worm strains were grown in mCeHR medium under aerobic conditions in tissue culture flasks at 20° C. ˜3.7×10^6 worms were routinely obtained after 3.5 to 4 days in a T75 flask with 30 ml basal medium from an initial inoculum of −1.5×10^5 worms. For initial culturing of worms in axenic media, three generations of worms were sequentially bleached (1.1% bleach/0.55 M NaOH) to eliminate any contaminating bacterial carryover from agar plates. In all dose-response experiments, worms were growth synchronized by treating the gravid hermaphrodite worms with bleach to dissolve adult worms. The eggs, resistant to bleach, were liberated from the carcasses and extensively washed with M9 buffer followed by overnight hatching in M9 buffer to synchronize growth. By harvesting at appropriate time intervals, synchronous larval stages and adult staged worms were collected for experimental manipulations. Identical numbers of synchronized L1 larvae were inoculated into media with different heme concentrations in 12- or 24-well culture plates. Worm growth was monitored each day and an aliquot was obtained for counting by microscopy usually at days 3, 6, and 9. The worms in each well were counted twice and each growth condition was analyzed in triplicate. P values for statistical significance were calculated utilizing a one-way ANOVA with Student-Newman-Keuls multiple comparison test using GraphPad Instat version 3.01. […]

[3] = test system: C. elegans mutant IH1068 n; parameters: key to Growth 1.6 μM hemin / Growth 0.5 μM GaPP: + = wild type equivalent In growth; ND: No growth
Experimental: as §1, §2

[4] = test system: C. elegans mutant IH1048; parameters: key to Growth 1.6 μM hemin / Growth 0.5 μM GaPP: + = wild type equivalent In growth; ND: No growth
Experimental: as §1, §2

hemin chloride
Growth 1.6 μM hemin [1]: +
Growth 1.6 μM hemin [2]: +
brood size 20 μM ([2]; 20 μM hemin, average in 24 well plates): 12.4
Generation time (Days) 800 μM ([2]; 800 μM hemin): 4 days
Growth 1.6 μM hemin [3]: +
Generation time (Days) 20 μM ([3]; 20 μM hemin): 4 days
Growth 1.6 μM hemin [4]: +
Generation time (Days) 800 μM ([4]; 800 μM hemin): 4 days
